# Assay results published in ChEMBL document CHEMBL1201862, “PubChem BioAssay data set” (2004).
# Active and inactive are the calls of the source.
# Assays:
# [1] = target: T1, Replicative DNA helicase DnaB (Mycobacterium tuberculosis, UniProt P9WMR3); assay: DnaB intein splicing inhibitors, dose response, biochemical, cell-free fluorescence (AID 449749); format: functional
# T1 sequence (P9WMR3 whole entry): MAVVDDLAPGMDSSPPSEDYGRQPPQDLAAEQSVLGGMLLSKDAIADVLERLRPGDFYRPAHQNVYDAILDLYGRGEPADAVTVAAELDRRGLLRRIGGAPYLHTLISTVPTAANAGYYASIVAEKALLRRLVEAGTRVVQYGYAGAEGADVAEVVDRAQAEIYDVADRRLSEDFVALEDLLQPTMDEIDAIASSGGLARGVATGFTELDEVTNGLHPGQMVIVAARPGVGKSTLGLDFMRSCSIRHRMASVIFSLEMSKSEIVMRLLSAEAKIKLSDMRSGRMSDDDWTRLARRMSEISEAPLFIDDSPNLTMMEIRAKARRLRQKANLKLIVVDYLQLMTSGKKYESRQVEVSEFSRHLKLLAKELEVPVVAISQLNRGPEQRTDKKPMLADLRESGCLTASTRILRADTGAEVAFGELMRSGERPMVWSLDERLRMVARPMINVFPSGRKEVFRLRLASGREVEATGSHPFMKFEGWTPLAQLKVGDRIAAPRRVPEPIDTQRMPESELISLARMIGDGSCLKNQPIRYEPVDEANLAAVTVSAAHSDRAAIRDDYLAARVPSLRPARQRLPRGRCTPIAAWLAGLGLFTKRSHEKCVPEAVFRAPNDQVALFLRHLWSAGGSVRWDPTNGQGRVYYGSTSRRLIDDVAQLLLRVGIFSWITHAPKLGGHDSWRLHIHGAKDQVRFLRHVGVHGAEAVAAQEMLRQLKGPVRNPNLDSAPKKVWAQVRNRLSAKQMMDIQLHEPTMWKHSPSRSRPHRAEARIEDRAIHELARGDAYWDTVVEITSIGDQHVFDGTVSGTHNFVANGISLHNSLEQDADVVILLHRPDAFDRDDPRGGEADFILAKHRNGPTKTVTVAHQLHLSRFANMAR
# [2] = target: T2, Protein RecA (Mycobacterium tuberculosis, UniProt P9WHJ3); assay: Fluorescence Cell-Free Homogeneous Dose Retest to Identify Inhibitors of RecA-Intein Splicing Activity. [Related pubchem assays (depositor defined):AID2097, AID2223, AID489010, AID492950]; format: functional
# T2 sequence (P9WHJ3 whole entry): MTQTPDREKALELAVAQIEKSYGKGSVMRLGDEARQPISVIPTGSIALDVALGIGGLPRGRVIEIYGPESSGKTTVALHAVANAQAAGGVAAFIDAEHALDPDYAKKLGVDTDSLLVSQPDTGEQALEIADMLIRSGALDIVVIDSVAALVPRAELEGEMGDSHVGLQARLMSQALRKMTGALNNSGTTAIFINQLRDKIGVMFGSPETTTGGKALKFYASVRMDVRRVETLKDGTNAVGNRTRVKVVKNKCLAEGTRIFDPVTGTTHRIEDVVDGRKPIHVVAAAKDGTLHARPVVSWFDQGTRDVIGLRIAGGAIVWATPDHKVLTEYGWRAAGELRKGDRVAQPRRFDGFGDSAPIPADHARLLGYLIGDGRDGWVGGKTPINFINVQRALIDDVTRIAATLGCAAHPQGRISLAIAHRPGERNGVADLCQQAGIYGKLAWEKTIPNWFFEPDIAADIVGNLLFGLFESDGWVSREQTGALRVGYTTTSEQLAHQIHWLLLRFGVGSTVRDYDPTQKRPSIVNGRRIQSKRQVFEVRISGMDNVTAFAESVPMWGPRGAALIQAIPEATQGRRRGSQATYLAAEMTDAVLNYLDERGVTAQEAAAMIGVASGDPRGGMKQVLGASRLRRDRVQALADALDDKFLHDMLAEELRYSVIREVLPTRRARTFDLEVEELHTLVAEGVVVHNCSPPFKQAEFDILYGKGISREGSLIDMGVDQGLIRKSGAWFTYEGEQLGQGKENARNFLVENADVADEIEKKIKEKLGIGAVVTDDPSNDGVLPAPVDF
# [3] = system: H9c2; assay: cells; format: functional, cell-based; settings: Rattus norvegicus, H9c2, Myocardium;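 further: confirmatory concentration-response retest of ultra-high-throughput screening hits for modulation of myocardial damage; cell death induced by hydrogen peroxide oxidative stress; compound pretreatment for 60 min then peroxide exposure for 2 h; potency is for protecting the cells against peroxide damage rather than for killing them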
# [4] = HEp-2 cell cytotoxicity, dose response, cytotoxicity control for RSV inhibitor project, HTS (AID 2410); format: functional; settings: human respiratory syncytial virus
# [5] = microbe, parasite or virus in culture; format: functional; settings: Mycobacterium tuberculosis
# [6] = target: T3, Heat shock factor protein 1 (Mus musculus, UniProt P38532); assay: inhibition of MG132-induced HSE-luciferase signal, confirmation, cell-based, NIH3T3, luminescence, dose retest (AID 2382); format: functional;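 further: NIH3T3 fibroblasts with HSF1-driven luciferase reporter stressed by proteasome inhibitor MG132; luminescence from HSF1-driven luciferase expression after 8 hours of MG132 stress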
# T3 sequence (P38532 whole entry): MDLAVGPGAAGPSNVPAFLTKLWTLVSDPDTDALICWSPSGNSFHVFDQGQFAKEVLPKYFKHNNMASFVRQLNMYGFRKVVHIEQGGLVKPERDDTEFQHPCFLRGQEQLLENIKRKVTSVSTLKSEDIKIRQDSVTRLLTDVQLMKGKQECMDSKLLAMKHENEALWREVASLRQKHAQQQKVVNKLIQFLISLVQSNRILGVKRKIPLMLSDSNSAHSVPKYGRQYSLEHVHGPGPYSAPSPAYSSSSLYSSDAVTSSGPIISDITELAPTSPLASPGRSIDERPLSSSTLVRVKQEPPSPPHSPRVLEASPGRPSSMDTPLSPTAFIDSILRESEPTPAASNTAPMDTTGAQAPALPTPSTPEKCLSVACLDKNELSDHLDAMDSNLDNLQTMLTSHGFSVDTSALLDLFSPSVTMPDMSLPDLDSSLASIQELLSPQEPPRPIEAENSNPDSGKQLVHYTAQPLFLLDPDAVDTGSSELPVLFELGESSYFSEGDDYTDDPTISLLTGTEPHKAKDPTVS
# [7] = target: Paired box protein Pax-8 (Homo sapiens, UniProt Q06710); assay: inhibitors of PAX8-driven TPO luciferase reporter, dose response, RMG-I cells, cherry-pick (AID 687027); format: functional, cell-based;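 further: luciferase reporter driven by Pax8 target thyroperoxidase promoter measured by SteadyGlo luminescence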
# [8] = system: Streptococcus sp. 'group A'; assay: growth inhibition of control SK(-) GAS strain, dose response, counter-screen for streptokinase expression inhibitor project, luminescence, kanamycin, BacTiterGlo, confirmation (AID 1900); format: functional, organism-based
# [9] = target: T4, Streptokinase A (Streptococcus pyogenes serotype M1, UniProt P10520); assay: S. pyogenes streptokinase expression inhibitors, potency, dose response, plasminogen activation absorbance, OD405 (AID 1914); format: functional, Streptococcus pyogenes M1 GAS;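 further: secreted streptokinase activity via plasminogen activation per viability signal from cell pellet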
# T4 sequence (P10520 whole entry): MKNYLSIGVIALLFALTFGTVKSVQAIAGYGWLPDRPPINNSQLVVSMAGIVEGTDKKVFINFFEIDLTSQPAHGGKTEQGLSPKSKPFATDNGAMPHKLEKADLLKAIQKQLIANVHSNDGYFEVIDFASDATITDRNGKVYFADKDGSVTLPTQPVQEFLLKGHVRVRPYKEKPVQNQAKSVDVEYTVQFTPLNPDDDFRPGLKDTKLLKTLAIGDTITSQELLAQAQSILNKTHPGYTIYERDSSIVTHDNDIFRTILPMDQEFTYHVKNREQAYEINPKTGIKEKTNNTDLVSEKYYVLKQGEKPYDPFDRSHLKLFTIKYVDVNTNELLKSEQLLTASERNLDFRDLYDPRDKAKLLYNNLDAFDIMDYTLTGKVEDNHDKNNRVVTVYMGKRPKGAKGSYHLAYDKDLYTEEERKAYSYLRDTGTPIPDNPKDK
# [10] = system: Streptococcus; assay: Group A Streptococcus viability loss, dose response, counter-screen for streptokinase expression inhibitor project, luminescence, BacTiterGlo (AID 1915); format: functional, organism-based;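 further: potency for reduction of bacterial viability or growth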
# Sequence of Paired box protein Pax-8 (Q06710 whole entry): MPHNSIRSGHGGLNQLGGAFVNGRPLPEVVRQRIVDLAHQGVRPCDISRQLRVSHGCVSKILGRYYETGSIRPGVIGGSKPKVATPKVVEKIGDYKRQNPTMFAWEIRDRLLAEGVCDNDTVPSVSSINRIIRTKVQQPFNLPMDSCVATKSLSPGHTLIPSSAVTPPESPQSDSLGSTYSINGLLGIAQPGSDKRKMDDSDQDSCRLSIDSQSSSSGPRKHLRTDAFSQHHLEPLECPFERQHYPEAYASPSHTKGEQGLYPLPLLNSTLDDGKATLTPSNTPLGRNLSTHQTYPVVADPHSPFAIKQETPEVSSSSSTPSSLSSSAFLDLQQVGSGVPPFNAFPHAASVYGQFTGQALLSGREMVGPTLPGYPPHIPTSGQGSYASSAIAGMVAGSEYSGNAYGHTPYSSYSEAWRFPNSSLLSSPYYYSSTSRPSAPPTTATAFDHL
compound,measurement,setting,value
Clc1ccc(-c2nnc(Sc3nc4ccccc4o3)c3ccccc23)cc1,AC50,[1],1.58 µM (active)
same,EC50,[2],0.405 µM (active)
CC(OC(=O)Cn1[nH]c(=O)c2ccccc2c1=O)C(=O)Nc1ccccc1[N+](=O)[O-] (stereo not given),IC50,[3],> 79 µM (inactive)
Cc1ccc(Nc2nc(N)nc(O)c2N=O)cc1,IC50,[3],12.1 µM (active)
Cc1nn(C)c(C(=O)Nc2cccc(Nc3ccccc3)c2)c1[N+](=O)[O-],CC50,[4],23.1 µM (active)
COc1ccc(NC(=O)c2cc(-c3ccc(OC)c(OC)c3)nc3ccccc23)c(OC)c1,IC50,[3],> 79 µM (inactive)
CCCCCCCNC(=O)c1ccc(N2CCC3(CC2)OCCO3)c([N+](=O)[O-])c1,CC50,[5],> 40 µM (active)
COc1ccc(CCNC(=O)c2ccc(N(C)S(=O)(=O)c3ccc(C)cc3)cc2)cc1,EC50,[6],> 195 µM (not active)
O=C(CSc1nccn1Cc1ccco1)Nc1cccc(F)c1,EC50,[6],> 195 µM (not active)
Cc1noc(C)c1COC(=O)COc1ccc2c(C)cc(=O)oc2c1,IC50,[3],13.5 µM (active)
CCN(CC)C(=O)[C@H]1CC(CC(=O)NCC23C[C@H]4C[C@@H](C2)C[C@@H](C3)C4)C(=O)N2CCc3c([nH]c4ccccc34)[C@]12C (stereo not given in full),CC50,[5],30.8 µM (active)
O=C1c2ccccc2C(=O)N1CCCCN(C(=O)c1ccc(Cl)s1)c1ccc(Cl)cc1,CC50,[4],24 µM (active)
C=CCNC(=O)c1onc(CCl)c1C(=O)OC,CC50,[5],> 40 µM (active)
CC1=NN(C(N)=S)C(=O)C1N=Nc1ccc(C)c(Br)c1 (stereo not given),CC50,[5],> 40 µM (active)
COc1ccc(OCc2cc(C(=O)NC3CCOC(C)(C)C3)no2)c2ccccc12 (stereo not given),AC50,[1],4.88 µM (active)
same,EC50,[2],4.57 µM (active)
O=C(NCC1CCCN(C2Cc3ccccc3C2)C1)c1cccs1 (stereo not given),EC50,[6],> 195 µM (not active)
CCn1cc(C(=O)Nc2cccc(NC(C)=O)c2)c2cc(OC)c(OC)cc2c1=O,IC50,[3],20.3 µM (active)
CCN(CCO)c1ncnc2c1sc1nc(C(C)C)c3c(c12)CC(C)(C)OC3,IC50,[3],> 79 µM (inactive)
O=C(Nc1cccc(F)c1)c1cc(-c2ccco2)nc2ccccc12,EC50,[6],> 195 µM (not active)
CCOC(=O)c1ccc(NC(=S)Nc2ccccc2N)cc1,EC50,[6],> 195 µM (not active)
CN(C)C(=O)/C=C\c1cn(-c2ccccc2)nc1-c1ccc2c(c1)OCCO2,IC50,[3],> 79 µM (inactive)
FC(F)(F)c1ccc2c(c1)N(CCCN1CCN(CCCl)CC1)c1ccccc1S2,AC50,[1],9.54 µM (active)
same,EC50,[2],3.6 µM (active)
Cn1c2c(c(=O)n(C)c1=O)C(c1cccc([N+](=O)[O-])c1)Nc1ccccc1O2 (stereo not given),IC50,[3],> 79 µM (inactive)
COc1cc2c(cc1OC)C(C(=O)NC1CC1)C1c3ccccc3CCN1C2=O (stereo not given),EC50,[6],> 195 µM (not active)
CCOC(=O)c1c(NC(=O)CCl)sc(C(=O)N(CC)CC)c1C,AC50,[1],2.19 µM (active)
same,EC50,[2],43.6 µM (active)
Cc1nn2c(-c3cccnc3)ccnc2c1-c1ccccc1,CC50,[4],41.2 µM (active)
CCCc1nc(NCCO)c(C#N)c2c1CCCC2,CC50,[4],15.7 µM (active)
COC(=O)c1ccc(C(c2c(C)n[nH]c2O)c2c(C)n[nH]c2O)cc1,AC50,[1],3.35 µM (active)
same,EC50,[2],1.94 µM (active)
CCc1ccccc1-n1c(SCC(=O)Nc2ccc3c(c2)OCCO3)nc2nncc-2c1O,EC50,[6],3.04 µM (active)
O=C(Nc1cccc(F)c1)N1CCC(c2ccccc2)CC1,AC50,[1],53.5 µM (active)
same,EC50,[2],> 380 µM (inactive)
CCCOc1cccc(-c2nn(-c3ccccc3)cc2/C=C(\C#N)C(=O)NCCCn2ccnc2)c1,CC50,[5],> 40 µM (active)
COC(=O)c1c(NC(=O)/C=C/C(=O)O)sc(C)c1-c1ccc(C)cc1,AC50,[1],33.7 µM (active)
same,EC50,[2],11.1 µM (active)
c1ccc(-c2ccc(C3CCCN3)cc2)cc1 (stereo not given),AC50,[1],> 380 µM (inactive)
same,EC50,[2],> 380 µM (inactive)
CCOC(=O)C1=C(CN2CCN(C(=O)c3ccco3)CC2)NC(=O)NC1c1ccc(OC)cc1 (stereo not given),EC50,[6],> 195 µM (not active)
CCN(CC(=O)Nc1cc(Cl)ccc1C)C(=O)CCc1nc(O)c2ccccc2n1,IC50,[3],> 79 µM (inactive)
NC(=O)c1nsc(C(=O)N(c2ccccc2)C(C(=O)NC2CCCC2)c2ccc3ncccc3c2)c1N (stereo not given),IC50,[3],> 79 µM (inactive)
COc1cc2c(c(OC)c1OC)-c1ccc(SC)c(=O)cc1C(NC(=O)C(F)(F)F)CC2 (stereo not given),AC50,[7],< 0.26 µM (active)
COc1cc(-c2cnc3c(NC=O)cc(-c4ccsc4)cn23)cc(OC)c1OC,IC50,[3],> 79 µM (inactive)
O=C1NC(=O)c2c(Br)c(Br)c(Br)c(Br)c21,IC50,[3],> 79 µM (inactive)
CCOC(=O)C1=C(COC(=O)/C=C/c2ccc(F)cc2)NC(=O)NC1C (stereo not given),IC50,[3],> 79 µM (inactive)
COc1cccc(C(c2nnnn2Cc2ccccc2)N2CCC(n3c(O)nc4ccccc43)CC2)c1OC (stereo not given),AC50,[7],5.5 µM (active)
COc1ccc(-c2cc(NC=O)c3ncc(-c4ccc(C(C)=O)cc4)n3c2)cn1,IC50,[3],> 79 µM (inactive)
COc1cccc(/C=N/NC(=O)c2oc3nc(-c4ccccc4)cc(-c4ccco4)c3c2N)c1,IC50,[3],> 79 µM (inactive)
CCOC1OC(O)=C(Cl)/C1=N\c1cc(C)ccc1C (stereo not given),CC50,[4],29.2 µM (active)
CCCc1cc(=O)n2nc(C)c(-c3ccc(Cl)cc3)c2[nH]1,EC50,[8],3.37 µM (active)
same,EC50,[9],> 150 µM (not active)
same,EC50,[10],11.3 µM (active)
same,CC50,[5],39.5 µM (active)
